Measurements: ChEMBL document CHEMBL5126608, “Development, Optimization, and In Vivo Validation of New Imidazopyridine Chemotypes as Dual TLR7/TLR9 Antagonists through Activity-Directed Sequential Incorporation of Relevant Structural Subunits” (J Med Chem, 2022)
pIC50: −log10 of the molar value. ≈ marks a conversion by molar mass, not a printed value.

Tests used:
[1] = target: T1, Toll-like receptor 9 (Homo sapiens, UniProt Q9NR96); test: Antagonist activity at human TLR9 expressed in HEK-blue hTLR9 cells assessed as inhibition of CpGB-induced NFkappaB activation preincubated with compound for 1 hrs followed by CpGB addition and measured next day by SEAP-based spectrophotometry assay; format: cell-based
T1 sequence (Q9NR96 whole entry): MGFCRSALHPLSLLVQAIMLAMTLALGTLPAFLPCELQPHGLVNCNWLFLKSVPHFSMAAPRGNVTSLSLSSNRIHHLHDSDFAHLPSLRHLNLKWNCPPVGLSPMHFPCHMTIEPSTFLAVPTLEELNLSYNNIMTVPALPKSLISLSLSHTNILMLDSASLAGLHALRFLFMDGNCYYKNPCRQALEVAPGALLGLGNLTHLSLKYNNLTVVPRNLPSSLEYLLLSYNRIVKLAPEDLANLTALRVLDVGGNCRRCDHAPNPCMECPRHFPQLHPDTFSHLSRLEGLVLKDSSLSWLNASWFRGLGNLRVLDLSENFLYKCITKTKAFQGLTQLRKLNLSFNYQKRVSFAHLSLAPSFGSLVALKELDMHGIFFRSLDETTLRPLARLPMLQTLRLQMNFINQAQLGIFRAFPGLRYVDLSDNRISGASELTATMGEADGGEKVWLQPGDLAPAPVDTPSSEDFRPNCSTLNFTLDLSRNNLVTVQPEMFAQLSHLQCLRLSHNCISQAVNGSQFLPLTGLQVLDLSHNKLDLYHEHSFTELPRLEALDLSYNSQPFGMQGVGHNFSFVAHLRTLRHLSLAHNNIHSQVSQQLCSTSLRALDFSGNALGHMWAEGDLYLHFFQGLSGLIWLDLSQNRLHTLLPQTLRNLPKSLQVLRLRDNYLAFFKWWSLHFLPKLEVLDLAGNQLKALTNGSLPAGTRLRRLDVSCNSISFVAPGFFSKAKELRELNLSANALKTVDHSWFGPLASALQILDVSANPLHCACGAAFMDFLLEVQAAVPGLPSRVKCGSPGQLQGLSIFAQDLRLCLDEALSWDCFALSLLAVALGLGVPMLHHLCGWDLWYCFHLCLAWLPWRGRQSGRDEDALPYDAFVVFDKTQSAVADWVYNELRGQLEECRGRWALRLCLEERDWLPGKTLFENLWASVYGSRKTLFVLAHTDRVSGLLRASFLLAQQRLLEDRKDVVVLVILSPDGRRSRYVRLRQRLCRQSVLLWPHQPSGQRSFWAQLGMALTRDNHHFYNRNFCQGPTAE

[2] = target: T2, Toll-like receptor 7 (Homo sapiens, UniProt Q9NYK1)
T2 sequence (Q9NYK1 whole entry): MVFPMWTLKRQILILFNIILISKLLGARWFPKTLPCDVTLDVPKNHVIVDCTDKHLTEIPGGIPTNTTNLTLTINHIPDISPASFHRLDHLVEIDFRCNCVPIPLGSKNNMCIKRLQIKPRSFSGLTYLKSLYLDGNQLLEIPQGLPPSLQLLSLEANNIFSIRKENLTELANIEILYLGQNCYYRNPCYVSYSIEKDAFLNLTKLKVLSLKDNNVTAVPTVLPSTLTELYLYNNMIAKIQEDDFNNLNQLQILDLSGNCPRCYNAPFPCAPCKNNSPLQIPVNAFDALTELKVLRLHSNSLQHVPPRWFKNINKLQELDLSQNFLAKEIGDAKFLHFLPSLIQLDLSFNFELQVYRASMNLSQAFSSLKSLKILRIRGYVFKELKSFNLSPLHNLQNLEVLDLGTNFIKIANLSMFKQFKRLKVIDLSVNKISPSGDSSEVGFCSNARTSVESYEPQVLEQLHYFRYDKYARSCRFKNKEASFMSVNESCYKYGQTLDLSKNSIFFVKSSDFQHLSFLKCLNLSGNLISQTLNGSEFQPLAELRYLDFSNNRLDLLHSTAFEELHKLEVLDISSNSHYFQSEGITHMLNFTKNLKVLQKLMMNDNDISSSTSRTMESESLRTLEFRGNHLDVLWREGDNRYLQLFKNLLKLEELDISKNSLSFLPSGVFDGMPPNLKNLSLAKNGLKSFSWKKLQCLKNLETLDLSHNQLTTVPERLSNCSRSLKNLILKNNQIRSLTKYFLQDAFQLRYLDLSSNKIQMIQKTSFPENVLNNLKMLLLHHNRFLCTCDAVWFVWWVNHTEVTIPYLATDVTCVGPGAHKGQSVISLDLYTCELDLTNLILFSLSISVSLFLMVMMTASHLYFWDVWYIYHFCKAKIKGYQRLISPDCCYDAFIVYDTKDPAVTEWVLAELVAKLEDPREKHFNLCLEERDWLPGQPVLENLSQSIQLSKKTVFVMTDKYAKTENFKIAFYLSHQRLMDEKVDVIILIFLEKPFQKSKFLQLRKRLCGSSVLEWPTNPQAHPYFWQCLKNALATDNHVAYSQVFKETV

[3] = physchem; conditions: octanol/water
Description: 1-Octanol/phosphate buffer partition coefficient, logD of the compound measured after 4.5 hrs by HPLC-UV analysis

[4] = Stability in mouse plasma assessed as parent compound remaining at 1 uM measured after 2 hrs by LC-MS/MS analysis
[5] = in vitro; conditions: human, microsomes
Description: Metabolic stability in human liver microsomes assessed as half life at 5 uM measured for 60 mins by LC-MS/MS analysis

[6] = Stability in human plasma assessed as parent compound remaining at 1 uM measured after 2 hrs by LC-MS/MS analysis
[7] = physchem; conditions: buffer, pH 7.4
[8] = in vitro; conditions: mouse, microsomes
Description: Metabolic stability in mouse liver microsomes assessed as half life at 5 uM measured for 60 mins by LC-MS/MS analysis

[9] = target: T1, Toll-like receptor 9
[10] = Apparent permeability across apical to basolateral side in human Caco-2 cells measured after 120 mins by LC-MS/MS analysis
[11] = Apparent permeability across basolateral to apical side in human Caco-2 cells measured after 120 mins by LC-MS/MS analysis
[12] = Efflux ratio of apparent permeability across basolateral to apical side to apical to basolateral side in human Caco-2 cells measured after 120 mins by LC-MS/MS analysis

| pIC50 [1] | pIC50 [2] | SMILES | also measured |
| --- | --- | --- | --- |
| 4.98 | – | COc1ccc(-c2cn3ccccc3n2)c(OC)c1 | – |
| 6.85 | 5.67 | COc1ccc(-c2nc3cc(N4CCN(C5CCCC5)CC4)ccn3c2CN2CCOCC2)c(OC)c1 | – |
| 5.83 | – | COc1ccc(-c2cn3ccc(N(C)C)cc3n2)cc1 | – |
| – | < 4.52 | COc1ccc(-c2nc3ccccn3c2N)c(OC)c1 | – |
| 7.36 | 5.91 | COc1ccc(-c2cn3ccc(N4CCN(C(C)C)CC4)cc3n2)cc1 | logD at 4.5 h [3]: 1.64; remaining at 2 h, 1 µM [4]: 92.8%; half-life at 1 h, 5 µM [5]: 66 min; remaining at 2 h, 1 µM [6]: 60.4%; solubility kinetic at 24 h, 500 µM [7]: 46.1 µg/mL (≈ 131 µM); half-life at 1 h, 5 µM [8]: 29.4 min |
| 6.82 | 5.25 | COc1ccc(-c2cn3ccc(N4CCN(C5CCCC5)CC4)cc3n2)c(OCc2ccccc2)c1 | – |
| 6.10 | 4.68 | COc1ccc(-c2cn3ccc(N4CCN(C5CCCC5)CC4)cc3n2)c(O)c1 | – |
| 7.42 | 6.09 | COc1ccc(-c2cn3ccc(NCCCn4ccnc4)cc3n2)c(OC)c1 | – |
| 7.82 | – | COc1ccc(-c2nc3cc(N4CCN(C(C)C)CC4)ccn3c2CN2CCCC2)c(OC)c1 | – |
| 7.17 | 5.97 | COc1ccc(-c2cn3ccc(NCCCN4CCOCC4)cc3n2)cc1 | – |
| 7.77 | – | COc1ccc(-c2cn3ccc(N4CCN(C5CCCC5)CC4)cc3n2)c(OCCCN2CCCC2)c1 | – |
| 6.50 | 5.53 | COc1ccc(-c2cn3ccc(N4CCN(C(=O)OC(C)(C)C)CC4)cc3n2)c(OCCCN2CCOCC2)c1 | – |
| 6.28 | 5.32 | COc1ccc(-c2nc3cc(N4CCN(C5CCCC5)CC4)ccn3c2NCc2ccccc2)c(OC)c1 | – |
| 5.66 | – | CN(C)c1ccn2cc(-c3ccccc3)nc2c1 | – |
| 5.67 | – | COc1ccc(-c2cn3ccc(N4CCN(C(=O)C5CCCC5)CC4)cc3n2)c(O)c1 | – |
| 7.31 | 5.63 | COc1ccc(-c2cn3ccc(N4CCN(C5CCCC5)CC4)cc3n2)c(OC)c1 | logD at 4.5 h [3]: 2.13; remaining at 2 h, 1 µM [4]: 93.4%; half-life at 1 h, 5 µM [5]: 37.6 min; remaining at 2 h, 1 µM [6]: 64.9%; solubility kinetic at 24 h, 500 µM [7]: 10.2 µg/mL (≈ 25.1 µM); half-life at 1 h, 5 µM [8]: 31.8 min |
| 7.26 | 5.95 | COc1ccc(-c2cn3ccc(N4CCNCC4)cc3n2)c(OCc2ccccc2)c1 | – |
| 6.12 | 5.42 | COc1ccc(-c2cn3ccc(N(C)C)cc3n2)c(OC)c1 | – |
| 5.29 | – | COc1ccc(-c2cn3ccc(N4CCN(C(=O)C5CCCC5)CC4)cc3n2)c(OCc2ccccc2)c1 | – |
| 7.40 | – | COc1ccc(-c2cn3ccc(N4CCN(C(C)C)CC4)cc3n2)c(OC)c1 | pIC50 [9]: 7.55 |
| 5.53 | – | COc1ccc(-c2cn3ccc(N)cc3n2)cc1 | – |
| 7.16 | – | COc1ccc(-c2cn3ccc(NCCCN4CCOCC4)cc3n2)c(OC)c1 | – |

| pIC50 [1] | pIC50 [2] | SMILES | also measured |
| --- | --- | --- | --- |
| 5.95 | 5.59 | COc1ccc(-c2nc3cc(N4CCN(C(=O)C5CCCC5)CC4)ccn3c2CN2CCCC2)c(OC)c1 | – |
| 6.61 | 4.60 | COc1ccc(-c2nc3cc(N4CCN(C5CCCC5)CC4)ccn3c2CN2CCCC2)c(O)c1 | – |
| 5.54 | 5.06 | COc1ccc(-c2cn3ccc(N4CCN(C(=O)C5CCCC5)CC4)cc3n2)c(OC)c1 | – |
| 5.80 | – | COc1ccc(-c2cn3ccc(N)cc3n2)c(OC)c1 | – |
| 5.97 | 4.60 | COc1ccc(-c2cn3ccc(N4CCN(C(=O)c5ccccc5)CC4)cc3n2)c(OCc2ccccc2)c1 | – |
| 7.55 | 6.32 | COc1ccc(-c2cn3ccc(N4CCN(C5CCCC5)CC4)cc3n2)c(OCCCN2CCOCC2)c1 | remaining at 2 h, 1 µM [4]: 90.6%; Papp A→B at 2 h [10]: 154 nm/s; Papp B→A at 2 h [11]: 81.7 nm/s; efflux ratio at 2 h [12]: 0.5; remaining at 2 h, 1 µM [6]: 94.3%; solubility kinetic at 24 h, 500 µM [7]: 2.6 µg/mL (≈ 5 µM) |
| 5.66 | 4.96 | COc1ccc(-c2cn3ccc(N4CCN(C(=O)c5ccc(F)cc5)CC4)cc3n2)c(OCc2ccccc2)c1 | – |
| 7.03 | – | COc1ccc(-c2cn3ccc(N4CCNCC4)cc3n2)c(OCCCN2CCCC2)c1 | – |
| 6.80 | – | COc1ccc(-c2cn3ccc(N4CCN(C(=O)OC(C)(C)C)CC4)cc3n2)c(OCCCN2CCCC2)c1 | – |
| 7.34 | – | COc1ccc(-c2cn3ccc(N4CCNCC4)cc3n2)c(OC)c1 | – |
| 7.31 | 5.47 | COc1ccc(-c2cn3ccc(NCCN4CCOCC4)cc3n2)c(OC)c1 | – |
| 7.40 | 5.60 | COc1ccc(-c2nc3cc(N4CCN(C(C)C)CC4)ccn3c2CN2CCOCC2)c(OC)c1 | – |
| 7.46 | 5.87 | COc1ccc(-c2cn3ccc(N4CCNCC4)cc3n2)c(OCCCN2CCOCC2)c1 | – |
| 7.41 | – | COc1ccc(-c2nc3cc(N4CCN(C5CCCC5)CC4)ccn3c2CN2CCCC2)c(OC)c1 | – |
| 6.10 | 6.25 | COc1ccc(-c2cn3ccc(N4CCNCC4)cc3n2)cc1 | – |
| 7.15 | 5.48 | COc1ccc(-c2cn3ccc(N4CCN(C5CCCC5)CC4)cc3n2)cc1 | – |
| 6.62 | – | COc1ccc(-c2nc3cc(N4CCN(C5CCCC5)CC4)ccn3c2CN2CCCC2)c(OCc2ccccc2)c1 | – |
| 5.68 | 5.17 | COc1ccc(-c2nc3cc(N4CCN(C5CCCC5)CC4)ccn3c2NC2CCCCC2)c(OC)c1 | – |
| – | – | CCCSc1ccc2nc(NC(=O)OC)[nH]c2c1 [ALBENDAZOLE] | solubility kinetic at 24 h, 500 µM [7]: 2.2 µg/mL (≈ 8.29 µM) |
| – | – | CC(C)[N+](C)(CCOC(=O)C1c2ccccc2Oc2ccccc21)C(C)C [PROPANTHELINE] | remaining at 2 h, 1 µM [4]: 0%; remaining at 2 h, 1 µM [6]: 0% |
| – | – | CC(C)NCC(O)COc1cccc2ccccc12 (stereo not drawn) [PROPRANOLOL] | Papp A→B at 2 h [10]: 144 nm/s; Papp B→A at 2 h [11]: 173 nm/s; efflux ratio at 2 h [12]: 1.2 |
